Experimental data taken from patent US8563744B2, “3-amino-benzo [D] isothiazole dioxide derivatives and their use as pesticides” (Syngenta Crop Protection, LLC, priority 2008, dated 2013).

Experiments:
Assay type in all cases: in vivo
Myzus persicae [1] = experiment: B2: Myzus persicae (green peach aphid), mixed population, feeding/residual contact activity, preventive; details: foliar, 144 h, sunflower leaf discs sprayed with test solutions of 200 ppm, aphid population of mixed ages, 6 days incubation, read-out: control of Myzus persicae (mortality)
Protocol: B2: Myzus persicae (green peach aphid) (mixed population, feeding/residual contact activity, preventive)
Sunflower leaf discs are placed on agar in a 24-well microtiter plate and sprayed with test solutions of 200 ppm. After drying, the leaf discs are infested with an aphid population of mixed ages. After an incubation period of 6 days, samples are checked for mortality and special effects (e.g. phytotoxicity).

Myzus persicae [2] = experiment: B3: Myzus persicae (green peach aphid), mixed population, systemic/feeding activity, curative; details: 144 h, roots of infested pea seedlings placed in test solutions of 24 ppm, 6 days after introduction, read-out: control of Myzus persicae (mortality)
Excerpt: B3: Myzus persicae (green peach aphid) (mixed population, systemic/feeding activity, curative)
Roots of pea seedlings, infested with an aphid population of mixed ages, are placed directly in the test solutions of 24 ppm. 6 days after introduction, samples are checked for mortality and special effects on the plant.

Myzus persicae [3] = experiment: B1: Myzus persicae (green peach aphid), mixed population, sachet test; details: 144 h, 12.5 ppm test compound in 30% sucrose solution, parafilm sachet, 6 days after infestation, read-out: control of Myzus persicae (mortality, feeding activity)
Protocol: B1: Myzus persicae (green peach aphid) (mixed population, sachet test)
Each well of a 24-well microtiter plate is filled with 0.6 ml 30% sucrose solution, containing 12.5 ppm of the test compounds. For producing the sachets, the wells are covered with streched parafilm and infested with a mixed population of Myzus persicae. 6 days after the infestation, samples are checked for mortality (feeding activity).

Row | SMILES | mortality at 200 ppm (Myzus persicae [1]) [%] | mortality at 24 ppm (Myzus persicae [2]) [%] | mortality at 12.5 ppm (Myzus persicae [3]) [%]
1 | NC1=NS(=O)(=O)c2c(Br)cccc21 [Compound P1.1, 7-bromo-1,1-dioxo-1H-1λ^6-benzo[d]isothiazol-3-ylamine] | ≥ 80 | ≥ 80 | –
2 | CNC1=NS(=O)(=O)c2c(F)cccc21 [Compound P1.15, (7-Fluoro-1,1-dioxo-1H-1λ^6-benzo[d]isothiazol-3-yl)-methyl-amine] | ≥ 80 | ≥ 80 | –
3 | CC(C)N1C(=N)c2cccc(Br)c2S1(=O)=O [Compound P2.1, 7-bromo-2-isopropyl-1,1-dioxo-1,2-dihydro-1λ^6-benzo[d]isothiazol-3-ylideneamine] | – | – | ≥ 80
